This is an account of results in US12723037B2, “Triazole derivative, method for preparing same, and use thereof” (SHENZHEN JIKANG PHARMACEUTICAL TECHNOLOGY CO., LTD., priority 2021, dated 2026).

The nature of data set [1]: In vivo toxicity assay in BALB/C mice (21 days, intragastric, once daily). The method, then: IV. In Vivo Toxicity Assay of Candidate Compounds in BALB/C
25 BALB/C mice were randomly divided into the following 5 groups: solvent control group (Control), positive control KPT-8602 (30 mg/kg, once daily) group, KPT-8602 (60 mg/kg, once daily) group, compound I (30 mg/kg, once daily) group, and compound I (60 mg/kg, once daily) group, with 5 mice in each group. Each group was intragastrically given a test compound at a corresponding concentration at a dose of 3 mL/kg. KPT-8602 and compound I were administered daily for 21 consecutive days.

The nature of data set [2]: Pharmacokinetic results of the drugs in SD rats. The note with it: for clearance: read-out: Cl s, spp. Format: in vivo. The source says:
III. Pharmacokinetic Results of the Drugs in SD Rats

Data set [3] concerns RPMI8226 cells. The data set is described as follows: Cytotoxicity experiment (Cell-Titer, 72 h) in RPMI8226 cells. It is filed as cell-based. To be noted: for IC50: Homo sapiens, RPMI-8226, 72 h, Cell-Titer. The method, then:
4. Cytotoxicity Experiment
• (1) RPMI8226 cells in the logarithmic growth phase were added to a 384-well plate at 1000 cells/well in a volume of 18 μL/well and incubated at 37° C., 5% CO2 for 24 h. • (2) The test compound at a stock concentration of 10 mM was diluted 10-fold with DMSO and then 100-fold with a serum-free 1640 medium to give a dilution at a working concentration of 10 μM containing 1% DMSO. 10 concentrations were then obtained by 2-fold serial dilution using a serum-free 1640 medium containing 1% DMSO, with the tenth concentration point being a solvent control group (no drug). The diluted compound was added into the plated cell plate at 2 μL/well to give final compound concentrations from 1000 nM (2-fold gradient dilution, 10 concentration gradients), and 4 replicates were set for each concentration. 1% DMSO was used as a solvent control and KPT-8602 as a positive control. • (3) The cells were incubated at 37° C. for 72 h, and 10 μL of Cell-Titer assay reagent was added to each well, followed by incubation in a cell incubator for 10 min. • (4) The mixture was well mixed by shaking and then assayed by the Cell-Titer program running on a microplate reader. The inhibition % and IC50 values (μM) were calculated using GraphPad Prism 5.

The mark [4] stands for this setting: 30 mg/kg once daily, intragastric, 21 days.
The mark [5] stands for this setting: rat, in vivo, po (10 mg/kg), read-out: AUC0-inf.

Like-named read-outs stand apart in the source and are kept apart here.

The term Cmax denotes the maximum level reached in the sampled fluid or tissue. What is called MRT is the average time that molecules of a dose stay in the body. Broadly, the half-life is the time needed for the level to fall by half in the phase considered. Read a high half-life as slow decline. Broadly, the Tmax is the time at which the peak concentration occurs. For orientation: bioavailability means dose-corrected exposure relative to a reference, in per cent. The term IC50 denotes the concentration that inhibits the measured activity by half. Turning to `CONC(=O)/C(=C/n1cnc(-c2cc(C(F)(F)F)cc(C(F)(F)F)c2)n1)c1cncnc1` [Compound I, (E)-3-(3-(3,5-Bis(trifluorometh-yl)phenyl)-1H-1,2,4-triazol-1-yl)-N-methoxy-2-(pyri-midin-5-yl)acrylamide], the body weight change entry in data set [1] (setting [4]) was “body weights comparable to the blank”. The body weight change entry in data set [1] (60 mg/kg once daily, intragastric, 21 days) is “body weights comparable to the blank”. In addition, the “safety (overall conclusion)” value in data set [1] (30 and 60 mg/kg once daily, 21 days) is listed as “good safety”. In data set [2] (iv (2 mg/kg), in ng·h/mL), this molecule showed an AUC0-inf of 1493 and an AUC0-t of 1301. For the same molecule, in data set [2] (iv and po), the “intravenous and oral AUCs compared with KPT-8602” value is “much higher than those of KPT-8602”; the “oral and intravenous half-lives compared with KPT-8602” value is recorded as “longer than those of KPT-8602”. The “oral half-life compared with KPT-8602” value in data set [2] (po) was “about 2 times”. Further, in data set [2] (po (10 mg/kg)), the Cl s, spp amounted to 43.8 mL/min/kg and the “Cmax” value was determined as 899 ng/mL. For the same molecule, in data set [2] (rat, in vivo, iv (2 mg/kg)), the MRT amounted to 2.49 h, the half-life was 4.23 h and the clearance turned out to be 24.2 mL/min/kg. In addition, in data set [2] (rat, in vivo, po (10 mg/kg)), the MRT was 7.65 h, the Tmax turned out to be 0.25 h, the bioavailability came out at 55.9% and the half-life is 5.59 h. Moreover, the AUC0-inf in data set [2] (setting [5]) came to 3890 ng·h/mL. Moreover, the AUC0-t in data set [2] (rat, in vivo, po (10 mg/kg), read-out: AUC0-t) came to 3210 ng·h/mL. In addition, in data set [3], the “cellular activity compared with KPT-8602” value is listed as “substantially equivalent to KPT-8602” and it took 370 nM to reach half-maximal inhibition (IC50).

As to `O=C(NO)/C(=C/n1cnc(-c2cc(C(F)(F)F)cc(C(F)(F)F)c2)n1)c1cncnc1` [II, (E)-3-(3-(3,5-Bis(trifluorometh-yl)phenyl)-1H-1,2,4-triazol-1-yl)-N-hydroxy-2-(pyri-midin-5-yl)acrylamide], the IC50 in data set [3] stood at 6900 nM.

With `CO/C(=N\C(C)(C)C)NC(=O)/C(=C/n1cnc(-c2cc(C(F)(F)F)cc(C(F)(F)F)c2)n1)c1cncnc1` [III, Methyl(Z)-N-((E)-3-(3-(3,5-bis(trifluoromethyl)phenyl)-1H-1,2,4-triazol-1-yl)-2-(py-rimidin-5-yl)acryloyl)-N′-(tert-butyl)carbamate], the concentration for half-maximal inhibition (IC50) in data set [3] is 7100 nM. The IC50 values of the last two molecules are within 1.5-fold of each other.

As to `CCONC(=O)/C(=C/n1cnc(-c2cc(C(F)(F)F)cc(C(F)(F)F)c2)n1)c1cncnc1` [IV, (E)-3-(3-(3,5-Bis(trifluorometh-yl)phenyl)-1H-1,2,4-triazol-1-yl)-N-ethoxy-2-(pyrimi-din-5-yl)acrylamide], in data set [3], the “cellular activity compared with KPT-8602” value is “substantially equivalent to KPT-8602” and half-maximal inhibition (IC50) was put at 540 nM.

Take `NC(=O)/C(=C/n1cnc(-c2cc(C(F)(F)F)cc(C(F)(F)F)c2)n1)c1cncnc1` [KPT-8602, reference compound]: the body weight change entry in data set [1] (setting [4]) is listed as “significant decrease in body weight”. Besides, the “mortality by day 10” value in data set [1] (60 mg/kg once daily, intragastric) is reported as “all died”. Also, the “mice died on day 7” value in data set [1] (60 mg/kg once daily, intragastric, 5 mice per group) is “two”. In data set [2] (iv (2 mg/kg), in ng·h/mL), the AUC0-inf amounted to 998 and the AUC0-t was found to be 963. In data set [2] (po (10 mg/kg)), the Cl s, spp was found to be 67.4 mL/min/kg. Further, the AUC0-t in data set [2] (po (10 mg/kg), in ng·h/mL) came to 2541. Moreover, in data set [2] (rat, in vivo, iv (2 mg/kg)), the MRT is 2.48 h, the half-life was 3.04 h and the clearance came to 34.4 mL/min/kg. For the same molecule, in data set [2] (rat, in vivo, po (10 mg/kg)), the MRT is 3.85 h, the Tmax was determined as 1 h, the bioavailability was 52% and the half-life was 2.69 h. Further, in data set [2] (setting [5]), the AUC0-inf is 2600 ng·h/mL. Also, in data set [2] (rat, in vivo, po (10 mg/kg), read-out: Cmax), the Cmax was 720 ng/mL. For the same molecule, half-maximal inhibition in data set [3] (IC50) was put at 340 nM.
